Experimental data: patent US4965377A, “Process of forming 2-(2-bromo-2-nitroethenyl)-furan” (Great Lakes Chemical Corporation, priority 1989, dated 1990)
≈ marks a conversion by molar mass, not a printed value. Where two headings read alike, the source gives them in different places.

Legend:
Pseudomonas aeruginosa [1] = test: Minimum inhibitory concentration against Pseudomonas aeruginosa; format: cell-based
Protocol: (§1) All of the minimum inhibitory concentration determinations were made in a nutrient-rich growth medium in the following manner. Each organism was inoculated into a nutrient-rich medium that supported its growth. Various concentrations of a solution of the antimicrobial in THFA (90% THFA, 10% antimicrobial) were dosed into the inoculated growth medium; inoculated media were also dosed only with THFA (no antimicrobial)to serve as controls. Two concentrations of antimicrobial were recorded for each organism after growth in the controls was visible (the lowest concentration that prevented growth and the highest concentration that allowed growth); the MIC is reported as the range between these concentrations.

Chlorella pyrenoidosa = test: Minimum inhibitory concentration against Chlorella pyrenoidosa; format: cell-based; details: Auxenochlorella pyrenoidosa
Protocol: as §1

bacteria and algae = test: Antimicrobial activity, general statement
Baccilus megaterium = test: Minimum inhibitory concentration against Bacillus megaterium; format: cell-based; details: Priestia megaterium, read-out: Minimum Inhibitory Conc
Protocol: as §1

[2] = ASTM Pulp and Paper efficacy test (ASTM E600-85); format: cell-based; details: compared with two commercially successful antimicrobials
Source text: BNEF can also be used as an antimicrobial in pulp and paper manufacturing applications.

Pseudomonas aeruginosa [3] = test: Viability of Pseudomonas aeruginosa in phosphate buffered water (FIG. 1); format: cell-based; details: after 6 hours of contact, pH 7.2
Protocol: FIG. 1 illustrates a decrease in the viability of Pseudomonas aeruginosa, a common bacterial genus found in industrial cooling water upon contact with different concentrations of BNEF. The experiment was performed in phosphate buffered water at a pH of 7.2.

Xanthomonas palargonii = test: Minimum inhibitory concentration against Xanthomonas palargonii; format: cell-based; details: Table 3, nutrient-rich growth medium, bacterium
Protocol: as §1

[4] = tested on: Agrobacterium tumefaciens; test: Minimum inhibitory concentration against Agrobacterium tumefaciens; format: cell-based; details: Table 3, nutrient-rich growth medium, bacterium
Protocol: as §1

Pseudomonas aeruginosa [5] = test: Contact time required for 99.9% reduction in viability of Pseudomonas aeruginosa in water; format: cell-based
Protocol: Virtually all modern water treatment applications are alkaline. Even in an alkaline condition, BNEF is quite active. Data in Table 2 show the contact time of BNEF required for a 99.9% reduction in Viability of Pseudomonas aeruginosa in water. Several pure culture cell suspensions of Pseudomonas aeruginosa were prepared in phosphate-buffered water that had been adjusted to pH 7.0 or pH 8.1. The initial concentration of viable cells was determined by counting colony forming-units in the standard spread plate method. A tetrahydrofurfuryl alcohol (THFA) solution containing the antimicrobial (90% THFA, 10% antimicrobial) was added to cell suspensions at each pH such that 10 ppm of the antimicrobial was dosed. Similarly, THFA was added without antimicrobial to cell suspensions at each pH value to serve as no-treatment controls. The concentration of viable cells was then determined at regular time intervals for all of the cell suspensions until at least 99.9% reduction in viability (compared to the controls) was achieved by the antimicrobial treatment.

[6] = tested on: Desulfovibro desulfuricans; test: Minimum inhibitory concentration against Desulfovibro desulfuricans; format: cell-based; details: Table 3; nutrient-rich growth medium; bacterium
Protocol: as §1

Trichoderma virde = test: Minimum inhibitory concentration against Trichoderma virde; format: cell-based; details: Table 3, nutrient-rich growth medium, fungus
Protocol: as §1

fungi = test: Metal working fluid preservation test, fungi; format: cell-based, fungi isolated from metalworking fluids; details: soluble oil, semisynthetic, and synthetic fluids; 72 hours, room temperature
Protocol: (§2) In addition to pulp and paper manufacturing, BNEF can be used as a metal working fluid preservative. […] These tests were performed in the following manner. A typical soluble oil, semi-synthetic, and synthetic metalworking fluid were prepared with tap water at a ratio of 20:1. A field sample of "spoiled" fluid was mixed with a nutrient broth (50/50) and incubated for 24 hours to serve as the bacterial inoculum. Fungi isolated from metalworking fluids were grown on agar plates. The fungi were harvested into a suspension which then served as the fungal inoculum. At time zero, 50 ml aliquots of each fluid were prepared. The fluids were inoculated and dosed with the antimicrobial agent at different concentrations. Time zero bacterial and fungal counts were taken on each control fluid. The samples were then placed on a mechanical shaker (at room temperature) for 72 hours. Bacterial and fungal counts were then performed. The preferred level of BNEF in this application is in the range of 10 to 100 ppm.

Staphylococcus aureus = test: Minimum inhibitory concentration against Staphylococcus aureus; format: cell-based; details: Table 3, nutrient-rich growth medium, bacterium
Protocol: as §1

Xanthomonas prunii = test: Minimum inhibitory concentration against Xanthomonas prunii; format: cell-based; details: Table 3, nutrient-rich growth medium, bacterium
Protocol: as §1

Saccharomyces sp. = test: Minimum inhibitory concentration against Saccharomyces sp.; format: cell-based; details: Table 3; nutrient-rich growth medium; fungus (yeast)
Protocol: as §1

Erwina caratovora = test: Minimum inhibitory concentration against Erwina caratovora; format: cell-based; details: Table 3; nutrient-rich growth medium; bacterium
Protocol: as §1

bacteria = test: Metal working fluid preservation test, bacteria (FIG. 3); format: cell-based, bacteria from spoiled metal working fluid; details: soluble oil, semisynthetic, and synthetic fluids; 72 hours, room temperature
Protocol: as §2

Rhizoctonia sp. = test: Minimum inhibitory concentration against Rhizoctonia sp.; format: cell-based; details: Table 3, nutrient-rich growth medium, fungus
Protocol: as §1

Erwina chysanthemi = test: Minimum inhibitory concentration against Erwina chysanthemi; format: cell-based; details: Table 3; nutrient-rich growth medium; bacterium
Protocol: as §1

[7] = Kinetics of disinfection in phosphate buffer (FIG. 5); format: cell-based; details: 10 ppm (w/v); phosphate buffer pH 7.0
Source text: FIG. 5 is a graph showing the kinetics of disinfection of 2-(2-bromo-2-nitroethenyl)-furan in comparison to its styrene analogue.

[8] = tested on: Photobacterium phosphoreum; test: Minimum inhibitory concentration against Photobacterium phosphoreum; format: cell-based; details: Table 3, nutrient-rich growth medium, bacterium
Protocol: as §1

Erwina anylovora = test: Minimum inhibitory concentration against Erwina anylovora; format: cell-based; details: Table 3; nutrient-rich growth medium; bacterium
Protocol: as §1

[9] = tested on: naturally occurring microorganism in industrial cooling water; test: Efficacy in industrial cooling water, ASTM E-645-85 method (FIG. 4); format: cell-based; details: 5 ppm, 24 hours of contact
Source text: FIG. 4 is a graph showing the efficacy of 2-(2-bromo-2-nitroethenyl)-furan in industrial cooling water applications according to the ASTM E-645-85 method.
BNEF can also be used in water treatment such as for example treatment of industrial cooling water. […] Shorter contact times require a higher concentration of BNEF in the application. Preferably an antimicrobially effective amount of BNEF should be added to reduce the viability of microorganisms by at least 90 percent. It is especially preferred to employ about 1 ppm to about 5 ppm of BNEF.

Alternaria solani = test: Minimum inhibitory concentration against Alternaria solani; format: cell-based; details: Table 3, nutrient-rich growth medium, fungus
Protocol: as §1

Asperillus niger = test: Minimum inhibitory concentration against Asperillus niger; format: cell-based; details: Table 3; nutrient-rich growth medium; fungus
Protocol: as §1

[10] = tested on: Xanthomonas poinsettiacola; test: Minimum inhibitory concentration against Xanthomonas poinsettiacola; format: cell-based; details: Table 3, nutrient-rich growth medium, bacterium
Protocol: as §1

[11] = Table 4, analogues, read-out: MIC Against Pseudomonas aeruginosa
[12] = Table 1, Chlorella pyrenoidosa, read-out: Minimum Inhibitory Conc
[13] = Table 1, read-out: Minimum Inhibitory Conc
[14] = read-out: Minimum Inhibitory Conc

## O=[N+]([O-])C(Br)=Cc1cccs1 [2-(2-bromo-2-nitroethenyl)-thiophene]
Pseudomonas aeruginosa [1]; [11]
  MIC: 21 to 42 µg/mL (≈ 89.7 to 179 µM)

## O=[N+]([O-])C=Cc1ccco1 [2-nitro-1-(2-furyl)ethylene, reference compound]
Chlorella pyrenoidosa; [12]
  MIC: 16 to 63 µg/mL (≈ 115 to 453 µM)
Bacteria and algae; background statement
  antimicrobial activity relative to BNEF: lower antimicrobial activity
Pseudomonas aeruginosa [1]; [13]
  MIC: 63 to 125 µg/mL (≈ 453 to 899 µM)
Baccilus megaterium; Table 1, Baccilus megaterium
  MIC: 63 to 125 µg/mL (≈ 453 to 899 µM)

## O=CC=Cc1ccco1 [3-(2-furyl)acrolein]
Chlorella pyrenoidosa; [14]
  MIC: 16 to 63 µg/mL (≈ 131 to 516 µM)
Pseudomonas aeruginosa [1]; [14]
  MIC: 250 to 500 µg/mL (≈ 2050 to 4090 µM)
Baccilus megaterium
  MIC: 250 to 500 µg/mL (≈ 2050 to 4090 µM)

## O=[N+]([O-])C(Br)=Cc1ccc(Br)o1 [5-bromo-2-(2-bromo-2-nitroethenyl)-furan]
Pseudomonas aeruginosa [1]; [11]
  MIC: 10 to 20 µg/mL (≈ 33.7 to 67.4 µM)

## Cc1ccc(C=C(Br)[N+](=O)[O-])o1 [5-methyl-2-(2-bromo-2-nitroethenyl)-furan]
Pseudomonas aeruginosa [1]; [11]
  MIC: 21 to 42 µg/mL (≈ 90.5 to 181 µM)

## O=[N+]([O-])C(Br)=Cc1ccc([N+](=O)[O-])o1 [5-nitro-2-(2-bromo-2-nitroethenyl)-furan]
Pseudomonas aeruginosa [1]; read-out: MIC Against Pseudomonas aeruginosa
  MIC: 8 to 16 µg/mL (≈ 30.4 to 60.8 µM)

## O=Cc1ccc([N+](=O)[O-])o1 [5-nitro-2-furaldehyde]
Chlorella pyrenoidosa; [12]
  MIC: 4 to 16 µg/mL (≈ 28.4 to 113 µM)
Pseudomonas aeruginosa [1]; [13]
  MIC: 6 to 12 µg/mL (≈ 42.5 to 85.1 µM)
Baccilus megaterium; Table 1, Baccilus megaterium
  MIC: 3 to 6 µg/mL (≈ 21.3 to 42.5 µM)

## O=[N+]([O-])C(Br)=Cc1ccco1 [BNEF, 2-(2-bromo-2-nitroethenyl)-furan]
[2]
  activity in Pulp and Paper efficacy test: at least as active as two commercially successful antimicrobials
Pseudomonas aeruginosa [3]
  concentration required to eliminate 99.9% of the test inoculum: about 10 ppm
Xanthomonas palargonii
  MIC: 1 to 2 µg/mL (≈ 4.59 to 9.17 µM)
[4]
  MIC: 0.5 to 1 µg/mL (≈ 2.29 to 4.59 µM)
Chlorella pyrenoidosa; [12]
  MIC: 4 to 16 µg/mL (≈ 18.3 to 73.4 µM)
Chlorella pyrenoidosa; Table 3, nutrient-rich growth medium, algae, read-out: MIC
  MIC: 4 to 16 µg/mL (≈ 18.3 to 73.4 µM)
Pseudomonas aeruginosa [5]; 10 ppm, pH 7.0, Initial Cell Concentration 3.2 × 10^4
  Required Contact Time (99.9% reduction): 5 h
Pseudomonas aeruginosa [5]; 10 ppm, pH 8.1, Initial Cell Concentration ~1.0 × 10^4
  Required Contact Time (99.9% reduction): 1 h
Pseudomonas aeruginosa [5]; 10 ppm, pH level of 8 compared to pH level of 7
  disinfection rate, effect of pH: faster at a pH level of 8
[6]
  MIC: < 2 µg/mL
Trichoderma virde
  MIC: < 5 µg/mL
fungi
  effectiveness in metal working fluids against fungi: effective
Staphylococcus aureus
  MIC: 3 to 7.6 µg/mL (≈ 13.8 to 34.9 µM)
Xanthomonas prunii
  MIC: 2 to 5 µg/mL (≈ 9.17 to 22.9 µM)
Saccharomyces sp.
  MIC: < 3 µg/mL
Erwina caratovora
  MIC: 0.5 to 1 µg/mL (≈ 2.29 to 4.59 µM)
bacteria
  effectiveness in metal working fluids against bacteria: effective
Rhizoctonia sp.
  MIC: < 1 µg/mL
Erwina chysanthemi
  MIC: 0.5 to 1 µg/mL (≈ 2.29 to 4.59 µM)
[7]
  effectiveness compared to β-bromo-β-nitrostyrene: as effective as an antimicrobial in water treatment application as β-bromo-β-nitrostyrene
[8]
  MIC: 1 to 5 µg/mL (≈ 4.59 to 22.9 µM)
Bacteria and algae; summary of Table 1
  antimicrobial activity: active at very low concentrations
Pseudomonas aeruginosa [1]; [13]
  MIC: 5 to 10 µg/mL (≈ 22.9 to 45.9 µM)
Erwina anylovora
  MIC: < 0.5 µg/mL
[9]
  reduction in viability: ~99%
Alternaria solani
  MIC: < 1 µg/mL
Asperillus niger
  MIC: < 1 µg/mL
[10]
  MIC: 0.5 to 1 µg/mL (≈ 2.29 to 4.59 µM)
Baccilus megaterium; Table 1, Baccilus megaterium
  MIC: 5 to 10 µg/mL (≈ 22.9 to 45.9 µM)

## C=Cc1ccco1 [furylethylene]
Chlorella pyrenoidosa; [12]
  MIC: 250 to 1000 µg/mL (≈ 2660 to 10600 µM)
Pseudomonas aeruginosa [1]; [13]
  MIC: > 1000 µg/mL
Baccilus megaterium; Table 1, Baccilus megaterium
  MIC: > 1000 µg/mL

## O=[N+]([O-])C(Br)=Cc1ccccc1 [β-bromo-β-nitrostyrene, reference compound]
Pseudomonas aeruginosa [5]; β-bromo-β-nitrostyrene, source of finding not stated
  disinfection rate, effect of higher pH: Increased disinfection rate with higher pH
